According to patent US7358255B2, “Therapeutic agent for keratoconjunctival disorder” (Santen Pharmaceutical Co., Ltd., priority 2003, dated 2008):

Tests used:
[1] = hydrochloride compared with free form; cited from earlier work
[2] = hydrochloride compared with free form; cited from earlier work; remark: listed apart in the source
[3] = system: corneal damage in dry eye model (exorbital lacrimal gland removed); test: Healing effect test for corneal damage (dry eye model, fluorescein staining score); type: in vivo, male SD rats
Experimental: Healing Effect Test for Corneal Damage Using male SD rats, a dry eye model was produced according to the method of Fujihara et al. (Invest. Ophthalmol. Vis. Sci 42 (1): 96-100 (2001)). After producing the dry eye model, cure rate of a corneal damage was determined according to the method of Miyata et al. (Japanese Review of Clinical Ophthalmology, 48 (2): 183-188 (1994)). A male SD rat was systemically anesthetized by an interperitoneal administration of Nembutal in an amount of 35 mg/kg. Subsequently, exorbital lacrimal gland was removed, and corneal damage was induced over two months. Next, a 0.01% solution of the present compound dissolved in a physiological saline solution was instilled into one eye, while the physiological saline solution (control) was instilled into the other eye, respectively, six times per day for 7 days. On day 7 after initiating the instillation, impaired part of the cornea was stained with fluorescein. Score of upper, middle and lower parts of the cornea were assessed according to the following criteria on the extent of staining by fluorescein, respectively. […] Similar test was also conducted on normal eyes as described above to determine the mean value of total scores on each part described above. 0: No punctate staining 1: Scattered staining (punctate, separated staining) 2: Moderate staining (a part of punctate staining being adjacent) 3: Heavy staining (punctate, barely separated staining) Improvement ratio of the 0.01% eye drop administration group of the present compound is shown in Table 1 calculated on the basis of the mean value of total scores of the aforementioned respective parts in the group (control) administered with a physiological saline solution eye drop as a standard value (improvement ratio: 0%), according to the following calculating formula. Mean value of the scores was obtained by averaging 8 examples in each case. [formula]

| SMILES | Solubility in comparison with the free form [1] | Oral absorptivity [2] | Improvement ratio (%) ([3]; 0.01% eye drop, six times per day for 7 days, calculated from mean total scores with saline control as 0%) | Mean value of total scores ([3]; fluorescein staining scores (0-3) of upper, middle and lower cornea summed, 0.01% solution in physiological saline instilled six times per day for 7 days, day 7, mean of 8, normal eye 2.9, control 6.1) | Improvement of the corneal damage (in words) ([3]; rat dry eye model, 0.01% eye drop) |
| --- | --- | --- | --- | --- | --- |
| COc1ccc2nc(COc3ccc(CC4SC(=O)NC4=O)cc3)n(C)c2c1 (centres unmarked) [5-[4-(6-methoxy-1-methyl-1H-benzimidazol-2-ylmethoxy)benzyl]thiazolidine-2,4-dione] | remarkable elevation of solubility | excellent oral absorptivity | – | – | – |
| COc1ccc2nc(COc3ccc(CC4SC(=O)NC4=O)cc3)n(C)c2c1 (centres unmarked) [Present compound, 5-[4-(6-methoxy-1-methyl-1H-benzimidazol-2-ylmethoxy)benzyl]thiazolidine-2,4-dione] | – | – | 53% | 4.4 | markedly improves the corneal damage |
